According to ChEMBL document CHEMBL5543097, “Synthesis and structure-activity relationships of novel 14-membered 2-fluoro ketolides with structural modification at the C11 position” (Eur J Med Chem, 2024):
In brackets after ≈: the same amount, converted by molar mass.

Key:
[1] = test system: Staphylococcus epidermidis; assay: Antibacterial activity against erythromycin-resistant Staphylococcus epidermidis 19-8 assessed as inhibition of visible bacterial growth incubated for 18 hrs by broth microdilution method; type: functional
Haemophilus influenzae [2] = assay: Antibacterial activity against Haemophilus influenzae HIN 19-18 assessed as inhibition of bacterial growth incubated for 20 to 24 hrs by CLSI based broth microdilution method; type: functional; settings: HIN 19-18, time 20-24 hrs
Streptococcus pneumoniae [3] = assay: Antibacterial activity against erythromycin-resistant Streptococcus pneumoniae SPN19-14 assessed as inhibition of visible bacterial growth incubated for 18 hrs by broth microdilution method; type: functional
Streptococcus pyogenes = assay: Antibacterial activity against erythromycin-resistant Streptococcus pyogenes ATCC 19615 assessed as inhibition of visible bacterial growth incubated for 18 hrs by broth microdilution method; type: functional
[4] = Cytotoxicity against mouse AML12 cells assessed as reduction in cell viability incubated for 48 hrs by MTT assay; type: toxicity, cell-based
[5] = test system: Staphylococcus epidermidis; assay: Antibacterial activity against erythromycin-resistant Staphylococcus epidermidis 19-4 assessed as inhibition of visible bacterial growth incubated for 18 hrs by broth microdilution method; type: functional
[6] = test system: Staphylococcus epidermidis; assay: Antibacterial activity against erythromycin-resistant Staphylococcus epidermidis 19-11 assessed as inhibition of visible bacterial growth incubated for 18 hrs by broth microdilution method; type: functional
Haemophilus influenzae [7] = assay: Antibacterial activity against Haemophilus influenzae HIN 20-18 assessed as inhibition of bacterial growth incubated for 20 to 24 hrs by CLSI based broth microdilution method; type: functional; settings: time 20-24 hrs
[8] = test system: Staphylococcus epidermidis; assay: Antibacterial activity against erythromycin-resistant Staphylococcus epidermidis 19-9 assessed as inhibition of visible bacterial growth incubated for 18 hrs by broth microdilution method; type: functional
Moraxella catarrhalis [9] = assay: Antibacterial activity against Moraxella catarrhalis BCA 19-31 assessed as inhibition of bacterial growth incubated for 24 hrs by CLSI based broth microdilution method; type: functional; settings: BCA 19-31, 24 h
Haemophilus influenzae [10] = assay: Antibacterial activity against Haemophilus influenzae HIN 19-15 assessed as inhibition of bacterial growth incubated for 20 to 24 hrs by CLSI based broth microdilution method; type: functional; settings: time 20-24 hrs
Moraxella catarrhalis [11] = assay: Antibacterial activity against Moraxella catarrhalis BCA 19-5 assessed as inhibition of bacterial growth incubated for 24 hrs by CLSI based broth microdilution method; type: functional
Moraxella catarrhalis [12] = assay: Antibacterial activity against Moraxella catarrhalis BCA 19-6 assessed as inhibition of bacterial growth incubated for 24 hrs by CLSI based broth microdilution method; type: functional
Streptococcus agalactiae [13] = assay: Antibacterial activity against erythromycin-resistant Streptococcus agalactiae 19-9 assessed as inhibition of visible bacterial growth incubated for 18 hrs by broth microdilution method; type: functional
[14] = test system: Staphylococcus epidermidis; assay: Antibacterial activity against erythromycin-resistant Staphylococcus epidermidis 19-6 assessed as inhibition of visible bacterial growth incubated for 18 hrs by broth microdilution method; type: functional
Streptococcus pneumoniae [15] = assay: Antibacterial activity against erythromycin-resistant Streptococcus pneumoniae SPN19-13 assessed as inhibition of visible bacterial growth incubated for 18 hrs by broth microdilution method; type: functional
Streptococcus pneumoniae [16] = assay: Antibacterial activity against erythromycin-resistant Streptococcus pneumoniae SPN19-8 assessed as inhibition of visible bacterial growth incubated for 18 hrs by broth microdilution method; type: functional
[17] = test system: Staphylococcus epidermidis; assay: Antibacterial activity against erythromycin-resistant Staphylococcus epidermidis 19-5 assessed as inhibition of visible bacterial growth incubated for 18 hrs by broth microdilution method; type: functional
Streptococcus agalactiae [18] = assay: Antibacterial activity against erythromycin-resistant Streptococcus agalactiae 19-8 assessed as inhibition of visible bacterial growth incubated for 18 hrs by broth microdilution method; type: functional
Streptococcus pneumoniae [19] = assay: Potency index, ratio of telithromycin MIC to test compound MIC for antibacterial activity against Streptococcus pneumoniae SPN19-13 assessed as inhibition of visible bacterial growth incubated for 18 hrs by broth microdilution method; type: functional
Streptococcus pneumoniae [20] = assay: Potency index, ratio of telithromycin MIC to test compound MIC for antibacterial activity against Streptococcus pneumoniae SPN19-8 assessed as inhibition of visible bacterial growth incubated for 18 hrs by broth microdilution method; type: functional
Streptococcus pneumoniae [21] = assay: Potency index, ratio of telithromycin MIC to test compound MIC for antibacterial activity against Streptococcus pneumoniae SPN19-14 assessed as inhibition of visible bacterial growth incubated for 18 hrs by broth microdilution method; type: functional
[22] = Moraxella catarrhalis, BCA 19-5, 24 h, read-out: MIC
[23] = Moraxella catarrhalis, BCA 19-6, 24 h, read-out: MIC

SMILES	MIC [1]	MIC (Haemophilus influenzae [2])	MIC (Streptococcus pneumoniae [3])	MIC (Streptococcus pyogenes)	CC50 at 48 h [4]	MIC [5]	MIC [6]	MIC (Haemophilus influenzae [7])	MIC [8]	MIC (Moraxella catarrhalis [9])	MIC (Haemophilus influenzae [10])	MIC (Moraxella catarrhalis [11]; [22])	MIC (Moraxella catarrhalis [12]; [23])	MIC (Streptococcus agalactiae [13])	MIC [14]	MIC (Streptococcus pneumoniae [15])	MIC (Streptococcus pneumoniae [16])	MIC [17]	MIC (Streptococcus agalactiae [18])	Ratio (Streptococcus pneumoniae [19])	other results
CC[C@H]1OC(=O)[C@H](C)[C@@H](O[C@H]2C[C@@](C)(OC)[C@@H](O)[C@H](C)O2)[C@H](C)[C@@H](O[C@@H]2O[C@H](C)C[C@H](N(C)C)[C@H]2O)[C@](C)(O)C[C@@H](C)C(=O)[C@H](C)[C@@H](O)[C@]1(C)O [ERYTHROMYCIN]	> 64 µg/mL	8 µg/mL (≈ 10.9 µM)	0.5 µg/mL (≈ 0.681 µM)	< 0.03 µg/mL	> 100 µM	> 64 µg/mL	64 µg/mL (≈ 87.2 µM)	> 16 µg/mL	> 64 µg/mL	0.5 µg/mL (≈ 0.681 µM)	8 µg/mL (≈ 10.9 µM)	> 64 µg/mL	64 µg/mL (≈ 87.2 µM)	16 µg/mL (≈ 21.8 µM)	32 µg/mL (≈ 43.6 µM)	> 64 µg/mL	> 64 µg/mL	0.25 µg/mL (≈ 0.341 µM)	0.125 µg/mL (≈ 0.17 µM)	–	–
CC[C@H]1OC(=O)[C@@](C)(F)C(=O)[C@H](C)[C@@H](O[C@@H]2O[C@H](C)C[C@H](N(C)C)[C@H]2O)[C@](C)(OC)C[C@@H](C)C(=O)[C@H](C)[C@H]2N(CCCOC(=O)Nc3ccc(C)cc3)C(=O)O[C@]12C	< 0.03 µg/mL	8 µg/mL (≈ 9.73 µM)	< 0.03 µg/mL	< 0.03 µg/mL	83.2 µM	< 0.03 µg/mL	< 0.03 µg/mL	–	0.125 µg/mL (≈ 0.152 µM)	–	8 µg/mL (≈ 9.73 µM)	0.03 µg/mL (≈ 0.0365 µM)	–	0.25 µg/mL (≈ 0.304 µM)	< 0.03 µg/mL	< 0.03 µg/mL	0.06 µg/mL (≈ 0.073 µM)	< 0.03 µg/mL	< 0.03 µg/mL	<4	Ratio (Streptococcus pneumoniae [20]): <4; MIC (Moraxella catarrhalis [11]; 24 h): <0.03 µg/mL; Ratio (Streptococcus pneumoniae [21]): <4
CC[C@H]1OC(=O)[C@@](C)(F)C(=O)[C@H](C)[C@@H](O[C@@H]2O[C@H](C)C[C@H](N(C)C)[C@H]2O)[C@](C)(OC)C[C@@H](C)C(=O)[C@H](C)[C@H]2N(CCCOC(=O)Nc3cccs3)C(=O)O[C@]12C	0.06 µg/mL (≈ 0.0737 µM)	4 µg/mL (≈ 4.91 µM)	0.25 µg/mL (≈ 0.307 µM)	< 0.03 µg/mL	> 100 µM	0.25 µg/mL (≈ 0.307 µM)	< 0.03 µg/mL	8 µg/mL (≈ 9.83 µM)	0.5 µg/mL (≈ 0.614 µM)	0.06 µg/mL (≈ 0.0737 µM)	4 µg/mL (≈ 4.91 µM)	0.25 µg/mL (≈ 0.307 µM)	0.25 µg/mL (≈ 0.307 µM)	1 µg/mL (≈ 1.23 µM)	0.06 µg/mL (≈ 0.0737 µM)	0.25 µg/mL (≈ 0.307 µM)	0.125 µg/mL (≈ 0.154 µM)	< 0.03 µg/mL	–	<4	Ratio (Streptococcus pneumoniae [20]): <4; Ratio (Streptococcus pneumoniae [21]): <4
CC[C@H]1OC(=O)[C@@](C)(F)C(=O)[C@H](C)[C@@H](O[C@@H]2O[C@H](C)C[C@H](N(C)C)[C@H]2O)[C@](C)(OC)C[C@@H](C)C(=O)[C@H](C)[C@H]2N(CCCOC(=O)Nc3ccc4c(c3)OCO4)C(=O)O[C@]12C	< 0.03 µg/mL	–	< 0.03 µg/mL	< 0.03 µg/mL	85.6 µM	0.06 µg/mL (≈ 0.0704 µM)	< 0.03 µg/mL	8 µg/mL (≈ 9.39 µM)	0.125 µg/mL (≈ 0.147 µM)	–	4 µg/mL (≈ 4.7 µM)	< 0.03 µg/mL	< 0.03 µg/mL	0.125 µg/mL (≈ 0.147 µM)	0.06 µg/mL (≈ 0.0704 µM)	< 0.03 µg/mL	0.03 µg/mL (≈ 0.0352 µM)	< 0.03 µg/mL	< 0.03 µg/mL	<4	Ratio (Streptococcus pneumoniae [20]): <4; Ratio (Streptococcus pneumoniae [21]): <4; MIC (Moraxella catarrhalis [12]; 24 h): 0.06 µg/mL (≈ 0.0704 µM)
CC[C@H]1OC(=O)[C@H](C)[C@@H](O[C@H]2C[C@@](C)(OC)[C@@H](O)[C@H](C)O2)[C@H](C)[C@@H](O[C@@H]2O[C@H](C)C[C@H](N(C)C)[C@H]2O)[C@](C)(O)C[C@@H](C)CN(C)[C@H](C)[C@@H](O)[C@]1(C)O [AZITHROMYCIN]	0.25 µg/mL (≈ 0.334 µM)	4 µg/mL (≈ 5.34 µM)	4 µg/mL (≈ 5.34 µM)	0.25 µg/mL (≈ 0.334 µM)	> 100 µM	> 64 µg/mL	0.25 µg/mL (≈ 0.334 µM)	> 16 µg/mL	> 64 µg/mL	0.125 µg/mL (≈ 0.167 µM)	4 µg/mL (≈ 5.34 µM)	> 64 µg/mL	> 64 µg/mL	0.125 µg/mL (≈ 0.167 µM)	0.5 µg/mL (≈ 0.668 µM)	> 64 µg/mL	0.25 µg/mL (≈ 0.334 µM)	0.5 µg/mL (≈ 0.668 µM)	0.5 µg/mL (≈ 0.668 µM)	–	–
CC[C@H]1OC(=O)[C@H](C)[C@@H](O[C@H]2C[C@@](C)(OC)[C@@H](O)[C@H](C)O2)[C@H](C)[C@@H](O[C@@H]2O[C@H](C)C[C@H](N(C)C)[C@H]2O)[C@](C)(OC)C[C@@H](C)C(=O)[C@H](C)[C@@H](O)[C@]1(C)O [CLARITHROMYCIN]	> 64 µg/mL	8 µg/mL (≈ 10.7 µM)	0.5 µg/mL (≈ 0.668 µM)	< 0.03 µg/mL	> 100 µM	> 64 µg/mL	16 µg/mL (≈ 21.4 µM)	> 16 µg/mL	16 µg/mL (≈ 21.4 µM)	0.125 µg/mL (≈ 0.167 µM)	4 µg/mL (≈ 5.35 µM)	> 64 µg/mL	32 µg/mL (≈ 42.8 µM)	64 µg/mL (≈ 85.6 µM)	64 µg/mL (≈ 85.6 µM)	64 µg/mL (≈ 85.6 µM)	> 64 µg/mL	0.25 µg/mL (≈ 0.334 µM)	0.06 µg/mL (≈ 0.0802 µM)	–	–
CC[C@H]1OC(=O)[C@@](C)(F)C(=O)[C@H](C)[C@@H](O[C@@H]2O[C@H](C)C[C@H](N(C)C)[C@H]2O)[C@](C)(OC)C[C@@H](C)C(=O)[C@H](C)[C@H]2N(CCCOC(=O)Nc3c(F)cccc3F)C(=O)O[C@]12C	0.125 µg/mL (≈ 0.148 µM)	4 µg/mL (≈ 4.74 µM)	0.125 µg/mL (≈ 0.148 µM)	< 0.03 µg/mL	> 100 µM	0.03 µg/mL (≈ 0.0355 µM)	< 0.03 µg/mL	16 µg/mL (≈ 19 µM)	0.25 µg/mL (≈ 0.296 µM)	0.125 µg/mL (≈ 0.148 µM)	4 µg/mL (≈ 4.74 µM)	0.122 µg/mL (≈ 0.145 µM)	0.125 µg/mL (≈ 0.148 µM)	1 µg/mL (≈ 1.18 µM)	0.125 µg/mL (≈ 0.148 µM)	0.125 µg/mL (≈ 0.148 µM)	0.125 µg/mL (≈ 0.148 µM)	< 0.03 µg/mL	–	–	–
